Assay results as given in ChEMBL document CHEMBL1154398, “Synthesis and activity in enhancing long-term potentiation (LTP) of clausenamide stereoisomers” (2009).

Assays:
Type in all cases: functional
[1] = Nootropic activity in hippocampus assessed as increase in amplitude of population spikes after 15 mins by long-term potentiation enhancement assay relative to control; parameters: concentration or dose not given beside the values
[2] = Nootropic activity in hippocampus assessed as increase in amplitude of population spikes after 30 mins by long-term potentiation enhancement assay relative to control; parameters: concentration or dose not given beside the values
[3] = Nootropic activity in hippocampus assessed as increase in amplitude of population spikes after 60 mins by long-term potentiation enhancement assay relative to control; parameters: concentration or dose not given beside the values
[4] = Nootropic activity in hippocampus assessed as increase in amplitude of population spikes for > 40 mins by long-term potentiation enhancement assay relative to control

SMILES	Activity [1] [%]	Activity [2] [%]	Activity [3] [%]	Activity [4] [%]
CN1C(=O)[C@H](O)[C@@H](c2ccccc2)[C@H]1[C@@H](O)c1ccccc1	36	47.5	107.8	>30
CN1C(=O)[C@@H](O)[C@H](c2ccccc2)[C@H]1[C@H](O)c1ccccc1	-18.2	-34.5	–	–
CN1C(=O)[C@H](O)[C@H](c2ccccc2)[C@@H]1[C@@H](O)c1ccccc1	26.2	41.2	105.4	>30
CN1C(=O)[C@@H](O)[C@@H](c2ccccc2)[C@@H]1[C@@H](O)c1ccccc1	-5.9	-1.8	-5.1	–
CN1C(=O)[C@H](O)[C@H](c2ccccc2)[C@H]1[C@@H](O)c1ccccc1	-3	10.1	21.7	–
CN1C(=O)[C@H](O)[C@H](c2ccccc2)[C@@H]1[C@H](O)c1ccccc1	7.2	0.3	5.4	–
CN1C(=O)[C@@H](O)[C@@H](c2ccccc2)[C@H]1[C@@H](O)c1ccccc1	1.7	9.7	9.6	–
CN1C(=O)[C@H](O)[C@H](c2ccccc2)[C@H]1[C@H](O)c1ccccc1	35	50.9	92.3	>30
CN1C(=O)[C@@H](O)[C@H](c2ccccc2)[C@H]1[C@@H](O)c1ccccc1	-9.4	-8.1	18.2	–
CN1C(=O)[C@@H](O)[C@H](c2ccccc2)[C@@H]1[C@H](O)c1ccccc1	-2.2	-8.8	17.3	–
CN1C(=O)[C@@H](O)[C@@H](c2ccccc2)[C@@H]1[C@H](O)c1ccccc1	-11.5	-11.9	-15.4	–
CN1C(=O)[C@@H](O)[C@H](c2ccccc2)[C@@H]1[C@@H](O)c1ccccc1	31.8	38.5	58.1	–
CN1C(=O)[C@H](O)[C@@H](c2ccccc2)[C@@H]1[C@H](O)c1ccccc1	4.7	-5.3	-9.4	–
CN1C(=O)[C@@H](O)[C@@H](c2ccccc2)[C@H]1[C@H](O)c1ccccc1	-12.7	2.9	22.5	–
CN1C(=O)[C@H](O)[C@@H](c2ccccc2)[C@H]1[C@H](O)c1ccccc1 [(+)CLAUSENAMIDE]	-9.4	10.1	6.4	–
CN1C(=O)[C@H](O)[C@@H](c2ccccc2)[C@@H]1[C@@H](O)c1ccccc1 [(+)NEOCLAUSENAMIDE]	-0.7	-29.1	-2.5	–
